Assay results as given in ChEMBL document CHEMBL5126590 (Bioorg Med Chem, 2022).
The source made the active and inactive calls. The calls are words filed in the database; no cut-off is given here.

Columns and labels:
[1] = molecular target: T1, Interstitial collagenase (Homo sapiens) (UniProt P03956); assay: Inhibition of MMP-1 (unknown origin) using FRET substrate preincubated for 5 mins followed by substrate addition and measured after 30 mins by fluorescence assay; settings: dose 25-100 µM, time 35.0 min, DDE = dose-dependent effect
T1 sequence (whole entry): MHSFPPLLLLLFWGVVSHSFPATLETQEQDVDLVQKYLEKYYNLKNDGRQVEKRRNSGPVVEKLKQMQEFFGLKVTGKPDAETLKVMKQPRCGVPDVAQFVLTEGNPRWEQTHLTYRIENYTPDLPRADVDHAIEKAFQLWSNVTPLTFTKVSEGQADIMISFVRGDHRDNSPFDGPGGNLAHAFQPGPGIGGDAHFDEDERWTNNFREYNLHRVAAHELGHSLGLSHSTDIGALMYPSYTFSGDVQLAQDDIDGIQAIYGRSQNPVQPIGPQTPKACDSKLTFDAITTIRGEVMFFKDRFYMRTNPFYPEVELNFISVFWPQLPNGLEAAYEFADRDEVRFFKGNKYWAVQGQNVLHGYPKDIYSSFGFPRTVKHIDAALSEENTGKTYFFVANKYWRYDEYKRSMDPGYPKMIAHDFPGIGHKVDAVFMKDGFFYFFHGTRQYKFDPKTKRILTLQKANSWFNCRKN

[2] = molecular target: T1, Interstitial collagenase (Homo sapiens); assay: (§1) Binding affinity to human MMP-1 catalytic domain (100 to 269 residues) expressed in Escherichia coli BL21 Star (DE3) by SPR analysis; settings: DDE = dose-dependent effect
[3] = molecular target: Actin, cytoplasmic 1 (Mus musculus) (UniProt P60710); assay: Binding affinity to beta-actin in mouse B16-F10 cell lysate by pull down assay; format: subcellular
[4] = molecular target: Heat shock cognate 71 kDa protein (Mus musculus) (UniProt P63017); assay: Binding affinity to HSP73 in mouse B16-F10 cell lysate by Western blot analysis; format: subcellular
[5] = molecular target: T1, Interstitial collagenase (Homo sapiens); assay: Binding affinity to human 15N-labelled MMP-1 catalytic domain (100 to 269 residues) expressed in Escherichia coli BL21 Star (DE3) assessed as chemical shift perturbation at E99 residue at 500 uM by 1H-15N HSQC spectra analysis
[6] = molecular target: T1, Interstitial collagenase (Homo sapiens); assay: Binding affinity to human 15N-labelled MMP-1 catalytic domain (100 to 269 residues) expressed in Escherichia coli BL21 Star (DE3) assessed as chemical shift perturbation at F97 residue at 500 uM by 1H-15N HSQC spectra analysis
[7] = molecular target: Heat shock cognate 71 kDa protein (Mus musculus) (UniProt P63017); assay: Binding affinity to HSP73 in mouse B16-F10 cell lysate by pull down assay; format: subcellular
[8] = molecular target: Mitogen-activated protein kinase kinase kinase 11 (Mus musculus) (UniProt Q80XI6); assay: Binding affinity to MLK3 in mouse B16-F10 cell lysate by pull down assay; format: subcellular
[9] = molecular target: Actin, cytoplasmic 1 (Mus musculus) (UniProt P60710); assay: Binding affinity to beta-actin in mouse B16-F10 cell lysate by Western blot analysis; format: subcellular
Interstitial collagenase = molecular target: T2, Interstitial collagenase (Homo sapiens, UniProt P03956); assay: as §1
T2 sequence (P03956 whole entry): T1 sequence (whole entry)

B16-F10 [10] = assay: Binding affinity to MMP-1 in mouse B16-F10 cell lysate by Western blot analysis; format: subcellular
B16-F10 [11] = assay: Binding affinity to MMP-1 in mouse B16-F10 cell lysate by pull down assay; format: subcellular

Sequence of Heat shock cognate 71 kDa protein (Mus musculus) (P63017 whole entry, the tested form may be a part): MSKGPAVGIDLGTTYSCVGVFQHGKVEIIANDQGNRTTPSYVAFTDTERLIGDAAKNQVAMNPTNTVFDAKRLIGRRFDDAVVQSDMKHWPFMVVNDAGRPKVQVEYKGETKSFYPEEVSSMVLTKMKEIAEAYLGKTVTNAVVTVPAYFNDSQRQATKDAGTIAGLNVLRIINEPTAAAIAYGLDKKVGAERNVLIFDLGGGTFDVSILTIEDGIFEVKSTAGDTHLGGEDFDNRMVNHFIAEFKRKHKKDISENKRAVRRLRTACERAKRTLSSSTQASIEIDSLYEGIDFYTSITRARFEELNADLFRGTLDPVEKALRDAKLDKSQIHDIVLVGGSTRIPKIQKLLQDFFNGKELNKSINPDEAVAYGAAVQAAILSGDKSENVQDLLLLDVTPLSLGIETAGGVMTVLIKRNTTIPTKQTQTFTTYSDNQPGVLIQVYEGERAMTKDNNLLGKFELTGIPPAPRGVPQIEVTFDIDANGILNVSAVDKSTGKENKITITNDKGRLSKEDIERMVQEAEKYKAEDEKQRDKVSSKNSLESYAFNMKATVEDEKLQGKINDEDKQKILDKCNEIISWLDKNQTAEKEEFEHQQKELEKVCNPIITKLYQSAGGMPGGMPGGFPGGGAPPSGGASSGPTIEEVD
Sequence of Mitogen-activated protein kinase kinase kinase 11 (Mus musculus) (Q80XI6 whole entry, looked up): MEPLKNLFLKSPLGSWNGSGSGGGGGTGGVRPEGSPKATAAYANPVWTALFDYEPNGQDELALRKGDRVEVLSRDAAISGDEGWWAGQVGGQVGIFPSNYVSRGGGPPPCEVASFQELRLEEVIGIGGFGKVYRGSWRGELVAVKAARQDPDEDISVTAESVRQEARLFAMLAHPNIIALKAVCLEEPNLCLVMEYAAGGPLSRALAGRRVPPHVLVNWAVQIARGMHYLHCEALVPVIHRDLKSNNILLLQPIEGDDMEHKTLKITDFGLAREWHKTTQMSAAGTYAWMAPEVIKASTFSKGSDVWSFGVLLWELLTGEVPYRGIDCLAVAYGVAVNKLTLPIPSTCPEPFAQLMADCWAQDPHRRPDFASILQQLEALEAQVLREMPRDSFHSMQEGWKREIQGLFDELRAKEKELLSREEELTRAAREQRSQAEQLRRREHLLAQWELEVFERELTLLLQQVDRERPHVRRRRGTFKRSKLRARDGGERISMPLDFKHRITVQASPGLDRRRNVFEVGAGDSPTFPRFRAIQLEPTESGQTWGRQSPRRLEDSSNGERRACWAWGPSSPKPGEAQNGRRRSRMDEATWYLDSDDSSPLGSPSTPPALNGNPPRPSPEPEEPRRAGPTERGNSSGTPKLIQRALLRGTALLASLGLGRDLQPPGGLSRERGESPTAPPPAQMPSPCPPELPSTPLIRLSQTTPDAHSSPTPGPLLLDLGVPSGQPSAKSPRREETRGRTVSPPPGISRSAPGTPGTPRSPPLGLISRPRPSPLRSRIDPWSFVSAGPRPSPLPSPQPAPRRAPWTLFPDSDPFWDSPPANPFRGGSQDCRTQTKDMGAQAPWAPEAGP

Compound	inhibition [1]	Activity [2]	Activity [3]	Activity [4]	Activity [5] [ppm]	Activity [6] [ppm]	Activity [7]	Activity [8]	Activity [9]	Kd (Interstitial collagenase) [µM]	Activity (B16-F10 [10])	Activity (B16-F10 [11])
O=c1c(O)c(-c2ccc(O)c(O)c2)oc2cc(O)cc(O)c12	Dde	Dde										
COc1c(-c2ccc(O)c(O)c2)oc2cc(O)cc(O)c2c1=O [3-O-METHYLQUERCETIN]	Dde	Dde	Active	Active	> 0.03	0.05	Active	Active	Active	21.7	Active	Active
